Measurements: paper PMC6982974, “Structure-Based Virtual Screening and Biological Evaluation of Peptide Inhibitors for Polo-Box Domain” (Molecules, 2019)
Read-outs that look alike come from different tables or passages of the source. Non-standard residues stand in square brackets, D forms with d. Residues, ends and D or L forms follow the SMILES beside them. Phe(3,4-Cl2) = N[C@@H](Cc1ccc(Cl)c(Cl)c1)C(=O)O; pT = C[C@@H](OP(=O)(O)O)[C@H](N)C(=O)O

How the values were obtained:
Format in all cases: binding
human PLK1-PBD protein = target: T1, human PLK1-PBD protein (Homo sapiens, UniProt P53350); test: Competitive fluorescence polarization (FP) assay, PLK1-PBD inhibition
T1 construct: a C-terminal polo-box domain (PBD)
Experimental: (§1) To test the binding ability of 9 peptides to the PLK1-PBD, a competitive fluorescence polarization (FP) assay was performed (Table S1).
(§2) A total of 20 μL of 200 nM human PLK1-PBD protein in phosphate-buffered saline (PBS, pH 7.4) was mixed with 20 μL of tested peptides at various concentrations in each well of a 384-well black bottom plate (Corning 3575, Thermo Scientific, Massachusetts, USA). Then, 20 μL of 30 nM probe was added to each well. The plate was shaken at room temperature for 40 min. The polarization values in millipolarization units (mP) were measured at excitation/emission wave lengths of 485/535 nm using a SpectraMax Paradigm Multi-Mode Detection Platform (Molecular-Devices, Tokyo, Japan). The percentage inhibition of the tested peptides at each concentration was defined as […] 1 − (Pobs − Pmin)/(Pmax − Pmin). Pmax is the polarization of the wells containing PLK1-PBD and the probe, Pmin is the polarization of the free probe, and the Pobs is the polarization for the wells containing the peptides with a series of concentrations. According to a previously reported method, FITC-GPMQSpTPLNG-OH was used as the fluorescein-labeled peptide, which was dissolved in dimethyl sulfoxide (DMSO) and the final optimized concentration was set at 20 nM. Phosphopeptides used for competition binding assays were dissolved in assay buffer. The buffer is made up of 50 mM NaCl, 10 mM Tris (pH 8.0), 1 mM EDTA and 0.1% Nonidet P-40. We further performed the sensitivity by synthesizing two fluorescent probes, FITC-GPMQTSpTPKNG-OH for PLK2-PBD and FITC-GPLATSpTPKNG-OH for PLK3-PBD, respectively. All experiments were performed in triplicate and the data were analyzed using GraphPad Prism 6.0 software (GraphPad Software, San Diego, CA, USA).

PLK3-PBD = target: T2, PLK3-PBD (Homo sapiens, UniProt Q9H4B4); test: Competitive fluorescence polarization (FP) assay, selectivity vs PLK3-PBD
T2 sequence (Q9H4B4 335-646 limits assumed): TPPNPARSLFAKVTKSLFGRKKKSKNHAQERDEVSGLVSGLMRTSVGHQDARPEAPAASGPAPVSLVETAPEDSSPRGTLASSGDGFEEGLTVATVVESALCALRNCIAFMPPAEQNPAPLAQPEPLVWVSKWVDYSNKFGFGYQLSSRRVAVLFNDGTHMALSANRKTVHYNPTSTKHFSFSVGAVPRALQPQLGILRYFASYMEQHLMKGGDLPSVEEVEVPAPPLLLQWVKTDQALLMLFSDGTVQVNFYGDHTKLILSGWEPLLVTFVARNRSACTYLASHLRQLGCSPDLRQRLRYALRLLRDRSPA
Experimental: as §1
as §2, with “According to a previously reported method, FITC-GPMQSpTPLNG-OH was used as the fluorescein-labeled peptide, which was dissolved in dimethyl sulfoxide (DMSO) and the final optimized concentration was set at 20 nM. Phosphopeptides used for competition binding assays were dissolved in assay buffer. The buffer is made up of 50 mM NaCl, 10 mM Tris (pH 8.0), 1 mM EDTA and 0.1% Nonidet P-40. We further performed the sensitivity by synthesizing two fluorescent probes, FITC-GPMQTSpTPKNG-OH for PLK2-PBD and FITC-GPLATSpTPKNG-OH for PLK3-PBD, respectively.” left out

PLK2-PBD = target: T3, PLK2-PBD (Homo sapiens, UniProt Q9NYY3); test: Competitive fluorescence polarization (FP) assay, selectivity vs PLK2-PBD
T3 sequence (Q9NYY3 355-685 limits assumed): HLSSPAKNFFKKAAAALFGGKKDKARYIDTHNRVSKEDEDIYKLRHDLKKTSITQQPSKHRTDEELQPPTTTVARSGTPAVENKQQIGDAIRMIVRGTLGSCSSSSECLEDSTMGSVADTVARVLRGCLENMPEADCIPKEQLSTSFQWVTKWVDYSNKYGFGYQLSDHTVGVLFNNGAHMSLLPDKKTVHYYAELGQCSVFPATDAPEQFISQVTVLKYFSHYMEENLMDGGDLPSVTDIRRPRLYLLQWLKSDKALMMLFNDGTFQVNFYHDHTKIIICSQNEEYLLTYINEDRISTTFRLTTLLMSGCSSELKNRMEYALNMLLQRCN
Experimental: as §1
as §2, with “According to a previously reported method, FITC-GPMQSpTPLNG-OH was used as the fluorescein-labeled peptide, which was dissolved in dimethyl sulfoxide (DMSO) and the final optimized concentration was set at 20 nM. Phosphopeptides used for competition binding assays were dissolved in assay buffer. The buffer is made up of 50 mM NaCl, 10 mM Tris (pH 8.0), 1 mM EDTA and 0.1% Nonidet P-40. We further performed the sensitivity by synthesizing two fluorescent probes, FITC-GPMQTSpTPKNG-OH for PLK2-PBD and FITC-GPLATSpTPKNG-OH for PLK3-PBD, respectively.” left out

[1] = probe FITC-GPMQSpTPLNG-OH, room temperature 40 min, performed in triplicate, read-out: IC50
[2] = at 1 μM inhibitor concentration

T1 sequence (P53350 326-603 limits assumed): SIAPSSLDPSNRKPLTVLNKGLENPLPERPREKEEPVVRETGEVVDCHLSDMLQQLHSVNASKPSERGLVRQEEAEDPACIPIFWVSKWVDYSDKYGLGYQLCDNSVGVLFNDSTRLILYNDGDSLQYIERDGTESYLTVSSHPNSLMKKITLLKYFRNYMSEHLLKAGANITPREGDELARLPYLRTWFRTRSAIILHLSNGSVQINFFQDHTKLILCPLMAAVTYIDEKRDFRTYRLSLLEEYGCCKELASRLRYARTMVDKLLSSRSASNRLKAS

SMILES | IC50 (human PLK1-PBD protein; [1]) [µM] | further results
CC[C@H](C)[C@H](NC(=O)[C@H](C)NC(=O)[C@@H](NC(=O)[C@H](CO)NC(=O)[C@H](Cc1c[nH]cn1)NC(=O)[C@H](CC(C)C)NC(=O)[C@@H]1CCCN1C(=O)[C@@H]1CCCN1C(=O)[C@H](CCC(=O)O)NC(=O)[C@@H](N)Cc1ccc(O)cc1)[C@@H](C)OP(=O)(O)O)C(=O)NCC(=O)O [Peptide 1] (H-YEPPLHS[pT]AIG-OH) | 0.32 ± 0.02 | –
CC[C@H](C)[C@H](NC(=O)[C@H](C)NC(=O)[C@@H](NC(=O)[C@H](CO)NC(=O)[C@H](Cc1c[nH]cn1)NC(=O)[C@H](CC(C)C)NC(=O)[C@@H]1CCCN1C(=O)[C@@H]1CCCN1C(=O)[C@H](CC(=O)O)NC(=O)[C@@H](N)Cc1c[nH]c2ccccc12)[C@@H](C)OP(=O)(O)O)C(=O)O [Peptide 2] (H-WDPPLHS[pT]AI-OH) | 0.19 ± 0.01 | –
CC[C@H](C)[C@H](NC(=O)[C@H](C)NC(=O)[C@@H](NC(=O)[C@H](CO)NC(=O)[C@H](Cc1c[nH]cn1)NC(=O)[C@H](CC(C)C)NC(=O)[C@@H]1CCCN1C(=O)[C@@H]1CCCN1C(=O)[C@H](CCC(=O)O)NC(=O)[C@@H](N)Cc1ccccc1)[C@@H](C)OP(=O)(O)O)C(=O)O [Peptide 3] (H-FEPPLHS[pT]AI-OH) | 0.29 ± 0.02 | –
CC(C)C[C@H](NC(=O)[C@@H]1CCCN1C(=O)[C@@H]1CCCN1C(=O)[C@H](CCC(=O)O)NC(=O)[C@@H](N)Cc1ccccc1)C(=O)N[C@@H](Cc1c[nH]cn1)C(=O)N[C@@H](CO)C(=O)N[C@H](C(=O)N[C@@H](C)C(=O)NCC(=O)O)[C@@H](C)OP(=O)(O)O [Peptide 4] (H-FEPPLHS[pT]AG-OH) | 0.16 ± 0.02 | –
CC(C)C[C@H](NC(=O)[C@@H]1CCCN1C(=O)[C@@H]1CCCN1C(=O)[C@H](CC(N)=O)NC(=O)[C@@H](N)Cc1ccc(Cl)c(Cl)c1)C(=O)N[C@@H](Cc1c[nH]cn1)C(=O)N[C@@H](CO)C(=O)N[C@H](C(=O)N[C@@H](C)C(=O)O)[C@@H](C)OP(=O)(O)O [Peptide 5] (H-[Phe(3,4-Cl2)]NPPLHS[pT]A-OH) | – | IC50 (human PLK1-PBD protein; triplicates, mean ± SD of three data sets, read-out: IC50 PLK1-PBD): 0.07 µM; IC50 (PLK3-PBD; Table S2, probe FITC-GPLATSpTPKNG-OH, triplicates): > 1 µM; inhibition at 1 µM (PLK3-PBD; [2]): ≤ 10%; IC50 (PLK2-PBD; Table S2, probe FITC-GPMQTSpTPKNG-OH, triplicates): > 1 µM; inhibition at 1 µM (PLK2-PBD; [2]): ≤ 10%
CC(C)C[C@H](NC(=O)[C@@H]1CCCN1C(=O)[C@@H]1CCCN1C(=O)[C@H](C)NC(=O)[C@@H](N)Cc1c[nH]c2ccccc12)C(=O)N[C@@H](Cc1c[nH]cn1)C(=O)N[C@@H](CO)C(=O)N[C@H](C(=O)N[C@@H](C)C(=O)N[C@@H](CCCCN)C(=O)O)[C@@H](C)OP(=O)(O)O [Peptide 6] (H-WAPPLHS[pT]AK-OH) | 0.35 ± 0.11 | –
CC(C)C[C@H](NC(=O)[C@@H]1CCCN1C(=O)[C@@H]1CCCN1C(=O)[C@H](CCCCN)NC(=O)[C@@H](N)Cc1c[nH]c2ccccc12)C(=O)N[C@@H](Cc1c[nH]cn1)C(=O)N[C@@H](CO)C(=O)N[C@H](C(=O)N[C@@H](C)C(=O)NCC(=O)O)[C@@H](C)OP(=O)(O)O [Peptide 7] (H-WKPPLHS[pT]AG-OH) | 0.42 ± 0.2 | –
CC(C)C[C@H](NC(=O)[C@@H]1CCCN1C(=O)[C@@H]1CCCN1C(=O)[C@H](CCCCN)NC(=O)[C@@H](N)Cc1c[nH]cn1)C(=O)N[C@@H](Cc1c[nH]cn1)C(=O)N[C@@H](CO)C(=O)N[C@H](C(=O)N[C@@H](C)C(=O)O)[C@@H](C)OP(=O)(O)O [Peptide 8] (H-HKPPLHS[pT]A-OH) | 0.61 ± 0.32 | –
CC(C)C[C@H](NC(=O)[C@@H]1CCCN1C(=O)[C@@H]1CCCN1C(=O)[C@H](CCC(N)=O)NC(=O)[C@@H](N)Cc1c[nH]cn1)C(=O)N[C@@H](Cc1c[nH]cn1)C(=O)N[C@@H](CO)C(=O)N[C@H](C(=O)N[C@@H](C)C(=O)O)[C@@H](C)OP(=O)(O)O [Peptide 9] (H-HQPPLHS[pT]A-OH) | 0.72 ± 0.24 | –
CSCC[C@H](NC(=O)[C@@H]1CCCN1C(=O)CNC(=O)[C@H](C)NC(=O)[C@@H](N)CCSC)C(=O)N[C@@H](CCC(N)=O)C(=O)N[C@@H](CO)C(=O)N[C@H](C(=O)N1CCC[C@H]1C(=O)N[C@@H](CC(C)C)C(=O)N[C@@H](CC(N)=O)C(=O)NCC(=O)N[C@@H](C)C(=O)N[C@@H](CCCCN)C(=O)N[C@@H](CCCCN)C(=O)O)[C@@H](C)OP(=O)(O)O [Polo b oxtide, reference compound] (H-MAGPMQS[pT]PLNGAKK-OH) | 7.92 ± 1.03 | –
